{"source": "patent US20110305637A1", "about": "“RADIOLABELLED PDE10 LIGANDS” (Janssen Pharmaceutica N.V., priority 2009, published 2011)", "test": "Brain metabolite analysis (cerebrum, cerebellum, not perfused)", "format": "in vivo, rat", "details": "60 min p.i.", "experimental": "(§1) From the same animals that were used for plasma analysis, brain was also dissected and rinsed with saline (Mini Plasco®, Braun, Melsungen, Germany) to rinse off the blood. Cerebrum and cerebellum were collected separately and homogenized in 3 mL and 2 mL of acetonitrile, respectively, for about 3 min. A volume of 1 mL of this homogenate was diluted with an equal volume of water and a part of this homogenate was filtered through 0.22 μm filter (Millex®-GV, Millipore, Ireland). About 0.5 mL of the filtrate was spiked with 5 μL of non-radioactive B-1 solution (1 mg/mL) and then injected on to HPLC, which was connected with an XBridge™ column (C18, […], 3 mm×100 mm, Waters) eluted with mixtures of 0.05 M sodium acetate buffer pH 5.5 and acetonitrile (60:40 v/v) at a flow rate of 0.8 mL/min. Similar to the plasma analysis, the HPLC eluate was collected as 1-mL fractions after passing through UV detector, and the radioactivity in the fractions was measured using the automated gamma counter.\nBased on their higher hydrophilicity we can expect that these radiometabolites may not cross the blood brain barrier (BBB). However, in order to rule out the presence or entry of these metabolites to the brain, we have also analyzed cerebrum and cerebellum samples of rats after isolation and subsequent homogenization at 60 min after injection of [^18F]B-1 (n=2).\nas §1, with “of non-radioactive B-2 solution (1” for “of non-radioactive B-1 solution (1”, “and acetonitrile (65:35 v/v) at” for “and acetonitrile (60:40 v/v) at”, “passing through the UV detector,” for “passing through UV detector,”\nBased on their higher hydrophilicity we can expect that these radiometabolites may not cross BBB. However, in order to rule out the presence or entry of these metabolites to the brain, we have also analyzed cerebrum and cerebellum samples of rats after isolation and subsequent homogenization at 60 min after injection of [^18F]B-2 (n=2).", "data": [{"smiles": "[18F]CCCn1cc(-c2ccncc2)c(-c2ccc(OCc3ccc4ccccc4n3)cc2)n1", "note": "[[^18F]B-1]", "values": [{"measurement": "Relative percentage of apolar metabolite(s)", "setting": "rat cerebellum", "value": "1.4 ± 0.9", "unit": "%"}, {"measurement": "Relative percentage of polar metabolite(s)", "setting": "rat cerebellum", "value": "15.3 ± 1.8", "unit": "%"}, {"measurement": "Relative percentage of apolar metabolite(s)", "setting": "rat cerebrum", "value": "0.3 ± 0.0", "unit": "%"}, {"measurement": "Relative percentage of polar metabolite(s)", "setting": "rat cerebrum", "value": "6.6 ± 2.9", "unit": "%"}]}]}
